Laboratory results reported in the supplement of paper PMC13207355.

Legend:
Conditions in all cases: exposure time: 72 h
E21 [1] = patient-derived glioblastoma stem cells of mesenchymal subtype; assay: phenotypic distance (Euclidean, principal components) from DMSO controls (arbitrary units); higher = stronger morphological change
E34 [2] = patient-derived glioblastoma stem cells of proneural subtype; assay: as above
E13 [3] = patient-derived glioblastoma stem cells of classical subtype; assay: as above
E57 [4] = patient-derived glioblastoma stem cells of mesenchymal subtype; assay: as above
E28 [5] = patient-derived glioblastoma stem cells of classical subtype; assay: as above
E31 [6] = patient-derived glioblastoma stem cells of proneural subtype; assay: as above
FT3469 [7] = normal neural stem cell line; assay: as above
E21 [8] = assay: surviving fraction (nuclei count normalised to DMSO); higher = more cells surviving (less toxic)
E34 [9] = assay: as above
E13 [10] = assay: as above
E57 [11] = assay: as above
E28 [12] = assay: as above
E31 [13] = assay: as above
FT3469 [14] = assay: as above
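Wherever phenotypic distance (Euclidean, principal components) from DMSO controls is given: cell Painting imaging in 384-well plates, CellProfiler features reduced to at least 20 principal components, Euclidean distance versus same-plate DMSO vehicle wells (0.1% v/v), median over six images per well.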
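Wherever surviving fraction (nuclei count normalised to DMSO) is given: nuclei counted by high-content imaging of Hoechst-stained cells in laminin-coated 384-well plates, relative to 0.1% DMSO vehicle wells, with staurosporine as cell-death control.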

O=C1CCc2cc(OCCCCc3nnnn3C3CCCCC3)ccc2N1 [Cilostazol]
Conditions	phenotypic distance	surviving fraction
E13 [3], 4.1 nM	0.5	–
E13 [3], 12.3 nM	0.664	–
E13 [3], 37 nM	1.06	–
E13 [3], 111.1 nM	0.612	–
E13 [3], 333.3 nM	0.287	–
E13 [3], 1000 nM	0.5	–
E13 [3], 3000 nM	0.553	–
E13 [10], 4.1 nM	–	0.989
E13 [10], 12.3 nM	–	1.04
E13 [10], 37 nM	–	1.01
E13 [10], 111.1 nM	–	0.931
E13 [10], 333.3 nM	–	0.933
E13 [10], 1000 nM	–	0.98
E13 [10], 3000 nM	–	0.897
E21 [1], 4.1 nM	0.676	–
E21 [1], 12.3 nM	1.17	–
E21 [1], 37 nM	1.02	–
E21 [1], 111.1 nM	1.46	–
E21 [1], 333.3 nM	0.998	–
E21 [1], 1000 nM	1.13	–
E21 [1], 3000 nM	1.15	–
E21 [8], 4.1 nM	–	0.933
E21 [8], 12.3 nM	–	1.09
E21 [8], 37 nM	–	1.03
E21 [8], 111.1 nM	–	1.04
E21 [8], 333.3 nM	–	0.973
E21 [8], 1000 nM	–	0.949
E21 [8], 3000 nM	–	0.934
E28 [5], 4.1 nM	0.648	–
E28 [5], 12.3 nM	0.777	–
E28 [5], 37 nM	0.65	–
E28 [5], 111.1 nM	1.01	–
E28 [5], 333.3 nM	1.82	–
E28 [5], 1000 nM	0.846	–
E28 [5], 3000 nM	0.458	–
E28 [12], 4.1 nM	–	0.916
E28 [12], 12.3 nM	–	1.13
E28 [12], 37 nM	–	0.892
E28 [12], 111.1 nM	–	1.2
E28 [12], 333.3 nM	–	1.01
E28 [12], 1000 nM	–	1.12
E28 [12], 3000 nM	–	0.914
E31 [6], 4.1 nM	0.904	–
E31 [6], 12.3 nM	0.814	–
E31 [6], 37 nM	0.863	–
E31 [6], 111.1 nM	0.598	–
E31 [6], 333.3 nM	0.893	–
E31 [6], 1000 nM	0.881	–
E31 [6], 3000 nM	0.868	–
E31 [13], 4.1 nM	–	0.919
E31 [13], 12.3 nM	–	1.04
E31 [13], 37 nM	–	0.905
E31 [13], 111.1 nM	–	0.98
E31 [13], 333.3 nM	–	0.963
E31 [13], 1000 nM	–	0.832
E31 [13], 3000 nM	–	0.832
E34 [2], 4.1 nM	0.293	–
E34 [2], 12.3 nM	0.701	–
E34 [2], 37 nM	0.573	–
E34 [2], 111.1 nM	1.28	–
E34 [2], 333.3 nM	0.55	–
E34 [2], 1000 nM	0.46	–
E34 [2], 3000 nM	0.733	–
E34 [9], 4.1 nM	–	0.904
E34 [9], 12.3 nM	–	1.1
E34 [9], 37 nM	–	0.938
E34 [9], 111.1 nM	–	0.937
E34 [9], 333.3 nM	–	1.05
E34 [9], 1000 nM	–	1.04
E34 [9], 3000 nM	–	0.959
E57 [4], 4.1 nM	0.508	–
E57 [4], 12.3 nM	0.665	–
E57 [4], 37 nM	0.802	–
E57 [4], 111.1 nM	0.893	–
E57 [4], 333.3 nM	1.16	–
E57 [4], 1000 nM	1.49	–
E57 [4], 3000 nM	1.42	–
E57 [11], 4.1 nM	–	0.991
E57 [11], 12.3 nM	–	0.969
E57 [11], 37 nM	–	0.975
E57 [11], 111.1 nM	–	1.04
E57 [11], 333.3 nM	–	0.91
E57 [11], 1000 nM	–	0.839
E57 [11], 3000 nM	–	0.817
FT3469 [7], 4.1 nM	0.483	–
FT3469 [7], 12.3 nM	0.448	–
FT3469 [7], 37 nM	0.352	–
FT3469 [7], 111.1 nM	0.643	–
FT3469 [7], 333.3 nM	3.23	–
FT3469 [7], 1000 nM	0.826	–
FT3469 [7], 3000 nM	0.541	–
FT3469 [14], 4.1 nM	–	1.03
FT3469 [14], 12.3 nM	–	1.03
FT3469 [14], 37 nM	–	0.96
FT3469 [14], 111.1 nM	–	1.02
FT3469 [14], 333.3 nM	–	0.949
FT3469 [14], 1000 nM	–	1.16
FT3469 [14], 3000 nM	–	0.891

CC(C)(Oc1ccc(C2CC2(Cl)Cl)cc1)C(=O)O (stereo unspecified) [Ciprofibrate]
Conditions	phenotypic distance	surviving fraction
E13 [3], 4.1 nM	0.888	–
E13 [3], 12.3 nM	0.449	–
E13 [3], 37 nM	0.462	–
E13 [3], 111.1 nM	0.363	–
E13 [3], 333.3 nM	0.62	–
E13 [3], 1000 nM	0.655	–
E13 [3], 3000 nM	0.745	–
E13 [10], 4.1 nM	–	0.885
E13 [10], 12.3 nM	–	0.896
E13 [10], 37 nM	–	1.05
E13 [10], 111.1 nM	–	0.961
E13 [10], 333.3 nM	–	1.07
E13 [10], 1000 nM	–	1.13
E13 [10], 3000 nM	–	1
E21 [1], 4.1 nM	1.13	–
E21 [1], 12.3 nM	1.12	–
E21 [1], 37 nM	1.06	–
E21 [1], 111.1 nM	0.721	–
E21 [1], 333.3 nM	0.996	–
E21 [1], 1000 nM	0.59	–
E21 [1], 3000 nM	0.683	–
E21 [8], 4.1 nM	–	0.982
E21 [8], 12.3 nM	–	0.945
E21 [8], 37 nM	–	0.898
E21 [8], 111.1 nM	–	0.962
E21 [8], 333.3 nM	–	0.951
E21 [8], 1000 nM	–	1.01
E21 [8], 3000 nM	–	0.986
E28 [5], 4.1 nM	1.01	–
E28 [5], 12.3 nM	0.813	–
E28 [5], 37 nM	0.864	–
E28 [5], 111.1 nM	0.823	–
E28 [5], 333.3 nM	0.782	–
E28 [5], 1000 nM	0.776	–
E28 [5], 3000 nM	0.735	–
E28 [12], 4.1 nM	–	1.06
E28 [12], 12.3 nM	–	0.804
E28 [12], 37 nM	–	1.11
E28 [12], 111.1 nM	–	1.06
E28 [12], 333.3 nM	–	1.12
E28 [12], 1000 nM	–	1.02
E28 [12], 3000 nM	–	1.31
E31 [6], 4.1 nM	0.865	–
E31 [6], 12.3 nM	0.469	–
E31 [6], 37 nM	0.691	–
E31 [6], 111.1 nM	0.704	–
E31 [6], 333.3 nM	0.816	–
E31 [6], 1000 nM	0.949	–
E31 [6], 3000 nM	0.985	–
E31 [13], 4.1 nM	–	1.18
E31 [13], 12.3 nM	–	0.902
E31 [13], 37 nM	–	0.955
E31 [13], 111.1 nM	–	0.771
E31 [13], 333.3 nM	–	1.06
E31 [13], 1000 nM	–	0.889
E31 [13], 3000 nM	–	1.06
E34 [2], 4.1 nM	0.978	–
E34 [2], 12.3 nM	0.753	–
E34 [2], 37 nM	0.669	–
E34 [2], 111.1 nM	0.8	–
E34 [2], 333.3 nM	0.886	–
E34 [2], 1000 nM	0.675	–
E34 [2], 3000 nM	1.09	–
E34 [9], 4.1 nM	–	1.07
E34 [9], 12.3 nM	–	0.868
E34 [9], 37 nM	–	0.894
E34 [9], 111.1 nM	–	0.945
E34 [9], 333.3 nM	–	0.986
E34 [9], 1000 nM	–	0.988
E34 [9], 3000 nM	–	1.08
E57 [4], 4.1 nM	0.79	–
E57 [4], 12.3 nM	0.645	–
E57 [4], 37 nM	0.985	–
E57 [4], 111.1 nM	0.544	–
E57 [4], 333.3 nM	0.513	–
E57 [4], 1000 nM	5.6	–
E57 [4], 3000 nM	0.728	–
E57 [11], 4.1 nM	–	0.918
E57 [11], 12.3 nM	–	1.04
E57 [11], 37 nM	–	0.934
E57 [11], 111.1 nM	–	0.991
E57 [11], 333.3 nM	–	1.03
E57 [11], 1000 nM	–	0.983
E57 [11], 3000 nM	–	1.06
FT3469 [7], 4.1 nM	0.922	–
FT3469 [7], 12.3 nM	0.62	–
FT3469 [7], 37 nM	0.718	–
FT3469 [7], 111.1 nM	0.814	–
FT3469 [7], 333.3 nM	0.871	–
FT3469 [7], 1000 nM	0.441	–
FT3469 [7], 3000 nM	0.507	–
FT3469 [14], 4.1 nM	–	0.859
FT3469 [14], 12.3 nM	–	0.891
FT3469 [14], 37 nM	–	0.979
FT3469 [14], 111.1 nM	–	0.92
FT3469 [14], 333.3 nM	–	0.926
FT3469 [14], 1000 nM	–	0.886
FT3469 [14], 3000 nM	–	0.947
